Measured values as given in patent publication US20260285924A1, “PEPTIDE THERAPEUTICS” (priority 2023, published 2026).

Assays:
[1] = system: A-to-I RNA editing reporter (ADAR) in A375; assay: A-to-I PepTile (REPTILE) screen: A-to-I editing of dsRNA hairpin reporter by NGS; format: cell-based, human; details: for % A-to-I editing (IFNα): IFNα 6000 U/ml for 48 hours; for % A-to-I editing (Basal): no treatment
Text: (§1) FIGS. 12A-12D. A-to-I PepTile screen. (A) Composition of A-to-I PepTile linrary screen, and schematic description of the lentiviral expression vector. (B) Experimental workflow. A375 cells were transduced at low MOI, and then treated or not with IFNα for 48 hrs. RNA was extracted and Peptide_ADARreporter RNA species were amplified and sequenced by NGS. (C) Dot plot of A-to-I PepTile library effect on A-to-I editing with or without IFNα treatment. Red line is the mean A-to-I editing of all the 8088 peptides (>100 read counts) no treatment: 25.75% IFNα: 37.6%. (D) Dot plot of A-to-I PepTile library fitness effect upon IFNα for 48 hrs.
FIGS. 17A-17F show A-to-I RNA Editing PiTile (REPTILE) screen in A375. (A) A-to-I RNA Editing PiTile (REPTILE) library design consist of fragmentation of all known ADAR1, ADAR2 interactors and all human double stranded RNA-binding protein into 40 amino acid long peptide. This library was then cloned into a lentivirus vector that also encode a DNA-encoded RNA loop reporter (A-to-I Rep) that is edited by ADAR proteins in cells at the RNA level. When the construct is expressed, the RNA loop gets edited on a single Adenosine, while the 40-mer peptide get expressed at the protein level. Then we can measure the impact of the peptide expression on the editing rate of the RNA loop reporter by sequencing (NGS and Sanger). (B) Experimental workflow of REPTILE screen in A375 cell line. Cells were transduced with the REPTILE library, and then treated for 48 hours with IFNα. Following the treatment, RNA was harvested, converted into cDNA and amplicon library containing peptide Identity (barcode) linked to the RNA loop reporter were prepared for NGS. (C) Result of the A375 REPTILE screen in the no treatment condition. Each dot represents a unique peptide that is associated with an A-to-I editing rate that was measured on the RNA loop. (D) Result of the A375 REPTILE screen in the IFNα condition. Each dot represents a unique peptide that is associated with an A-to-I editing rate that was measured on the RNA loop. Red line represent the A-to-I editing mean, Dash blue line represent 2 times the standard deviation of the % A-to-I editing across all the datasets. This cutoff was used to defined peptides hits that modulate RNA A-to-I editing. (E) Peptide A-to-I Inhibitor Hits intersection between no treatment (% A-to-I editing<15%) and IFNα (% A-to-I editing<27%) conditions. (F) Peptide A-to-I Enhancers Hits intersection between no treatment (% A-to-I editing>36%) and IFNα (% A-to-I editing>47%) conditions.
Provided herein is a screening methodology to measure the effect of small peptide on A-to-I RNA editing in situ and screen thousands of peptides in a single experiment. First, a library of peptides with the potential of impairing A-to-I editing was designed and built. ADAR enzymes edit RNA only on double-stranded RNA structures and via ADAR's double stranded RNA-Binding Domain (dsRBD). […] The A-to-I PepTile library is composed of 19 Human proteins having dsRBD and 34 known protein-protein interactors of ADAR1/2. All these proteins were tiled into 40-mer peptides every 4 amino acids (FIG. 12A). To measure A-to-I editing, a biosensor consisting of a 71 bp dsRNA hairpin structure that gets A-to-I edited at a rate of 25% in A375 melanoma cells, and ~37% upon IFNα treatment was used. This A-to-I editing reporter is fused with DNA sequence encoding for a peptide from the A-to-I PepTile library. The A-to-I PepTile plasmid pool (10304 elements) was used to produced lentiviruses and transduced A375 cells at a low multiplicity of infection (MOI) (FIG. 12B). A part of the infected cells was treated with IFNα at 6000 U/ml for 48 hours, and then bulk RNA of the basal and treated condition was harvested. RNA was then retrotranscribed into cDNA and sequenced by Next-Generation Sequencing (NGS). […]

A375 cells = assay: A-to-I PepTile screen: fitness effect upon IFNα (PepTile abundance untreated vs treated); format: cell-based, human
Text: as §1
Provided herein is a screening methodology to measure the effect of small peptide on A-to-I RNA editing in situ and screen thousands of peptides in a single experiment. First, a library of peptides with the potential of impairing A-to-I editing was designed and built. ADAR enzymes edit RNA only on double-stranded RNA structures and via ADAR's double stranded RNA-Binding Domain (dsRBD). […] The A-to-I PepTile library is composed of 19 Human proteins having dsRBD and 34 known protein-protein interactors of ADAR1/2. All these proteins were tiled into 40-mer peptides every 4 amino acids (FIG. 12A). To measure A-to-I editing, a biosensor consisting of a 71 bp dsRNA hairpin structure that gets A-to-I edited at a rate of 25% in A375 melanoma cells, and ~37% upon IFNα treatment was used. This A-to-I editing reporter is fused with DNA sequence encoding for a peptide from the A-to-I PepTile library. The A-to-I PepTile plasmid pool (10304 elements) was used to produced lentiviruses and transduced A375 cells at a low multiplicity of infection (MOI) (FIG. 12B). A part of the infected cells was treated with IFNα at 6000 U/ml for 48 hours, and then bulk RNA of the basal and treated condition was harvested. RNA was then retrotranscribed into cDNA and sequenced by Next-Generation Sequencing (NGS). With the sequencing data, the A-to-I editing percentage of the RNA reporter for each PepTile is calculated since both elements are encoded on the same transcript. Moreover, with this screen one can also measure the abundance of the PepTiles between the untreated and treated conditions and determine Fitness score associated to every PepTile. To ensure a robust and more accurate A-to-I editing % estimation a cut-off of 100 read counts was set for each PepTile. […] SEQ ID NOs: 2125-2147 are A-to-I peptide inhibitors and SEQ ID NOs: 2148-2210 are A-to-I activators. In addition, 117 PepTiles were identified that either synergize (SEQ ID NOs: 2211-2243) or protect (SEQ ID NOs: 2244-2327) to IFNα-induced cell death (FIG. 12D and Table 5). These PepTiles are potential new therapeutic agents that can modulate the Interferon pathway. They may be beneficial in treating inflammatory conditions and may also enhance the effectiveness of cancer immunotherapy through synergistic effects.

[2] = IFNα 6000 U/ml for 48 hours vs untreated

Sequence	% A-to-I editing (IFNα) [1] [%]	% A-to-I editing (Basal) [1] [%]	Fitness Score IFNα (A375 cells; [2])	Fitness Score IFNα (A375 cells; A375, PepTile abundance upon IFNα treatment, negative = synthetic lethal, positive = protector)
MLEQCNTELKKYSHVNKKALDQFVNFSEQKEKLIKRQEELD [SMC3_243]	47.01	42.74	-0.61	
MLPERLEVNGRESEEENLNKSEISQVFEIALKRNLPVNFEV [STAU1_42]	18.40	11.00	0.46	
MLRYFDEKELELMLCGMQEIDMSDWQKSTIYRHYTKNSKQI [WWP2_185]	25.97	13.42	-0.08	
MMGGPLPPHLALKAENNSEVGASGYGVPGPTWDRGANLKDY [DHX9_28]	54.35	49.65	1.46	
MNKSEISLVFEIALKRNMPVSFEVIKESGPPHMKSFVTRVS [STAU2_44]	23.54	6.78	0.07	
MNMMLFEVVKMGKSAMQSVVDDWIESYKHDRDIALLDLINF [STAG2_21]	58.92	43.58	0.65	
MPLRGWPLELLCEKSIGTANRPMGAGEALRRVLECLASGIV [ILF3_62]	55.34	39.78	-0.73	
MPVSALHQFAQMQRVQLDLKETVTTGNVMGPYFAFCAVVDG [ADAD1_25]	25.66	14.03	0.99	
MPYERQQFESVEWYNNRNQDNYVSWSDSEDDDEDEEIEEKE [DICER1_98]	52.37	37.74	-1.79	
MQAHLAMGGGPGPGTDFTSDQADFPDTLFQEFEPPAPRPGL [ADARB2_50]	51.37	40.11	0.65	
MQPQTTINKEQFSKRKNDTLDPELFVECTECGRKMHQICVL [EP300_306]	20.81	12.58	-0.25	
MQQGTPGMALGSMGSVVKSEASSSPPVVTSSSHSRAPCQAG [SOX2_58]	53.74	41.35	-0.36	
MQVEQMEIPPVELPPEEPPNICQLIPELELLPEKEKEKEKE [RAD21_124]	48.70	39.15	1.20	
MQVTISVTSPLMREDPSTDPGVEEPQADAGDVLSPKKCLES [ZFR2_183]	54.85	40.13	-0.70	
MRFLYSELMKYNSQTAKDSIFEPAKGGEKLQIKKTVSFHLY [ADAR_231]	65.21	56.37	0.14	
MRNAEFLTCNIPTSNASNNMVTTEKVENGQEPVIKLENRQE [ADAR_97]	51.11	40.12	-1.27	
MRPFQALPREQSPPPPLQTSSGAEVMDVGSGGDGQSELPAE [DGCR8_7]	54.04	40.23	0.13	
MRRDHQLREAPDTAEKAKSHLEVPLEENVNRRVLEEGSVEA [CCDC124_27]	24.35	12.18	1.71	
MSELNQKRPQYIKAKENTSHKIKKLEAAKKSLQNAQKHYKK [SMC1A_73]	23.54	11.31	-0.76	
MSESGNSARSSGISSQNSSTSDGDRSVSSQSSSSVSSQVTT [CDKN2AIP_47]	26.81	14.82	-1.31	
MSGTSYSGYEAAVYSAASSYYQQQQQQQKQAAAAAAAAAAT [ZFR_66]	49.01	40.81	2.04	2.04
